# Reference: publication PMC3404749 (Molecular Pharmaceutics, 2012)
# How the values were obtained:
# [1] = biological target: T1, expressed human SULT1A3 (Homo sapiens, UniProt P0DMM9); assay: Sulfonation activities of flavonoids in expressed human SULT1A3; assay type: in vitro ADME; conditions: for sulfate detection when SULT1A3 was used: expressed SULT1A3, LC-MS/MS and UPLC; for sulfonation rate: pH 7.4, 37°C, n=3
# [2] = biological target: T1, expressed human SULT1A3; assay: Kinetics of flavonoid sulfonation by SULT1A3; conditions: for Km1: SULT1A3, 0.039–20 µM substrate; for Kinetic model: SULT1A3, best-fit model by Eadie-Hofstee plot and AIC; for Ksi (substrate inhibition constant): SULT1A3, substrate inhibition model
# [3] = biological target: SULT1A3 (Homo sapiens, UniProt P0DMM9); assay: Kinetics of flavonoid sulfonation by SULT1A3; conditions: human
# [4] = expressed SULT1A3, substrate concentration 2.5 µM
# [5] = expressed SULT1A3, substrate concentration 10 µM
# T1 sequence (P0DMM9 whole entry): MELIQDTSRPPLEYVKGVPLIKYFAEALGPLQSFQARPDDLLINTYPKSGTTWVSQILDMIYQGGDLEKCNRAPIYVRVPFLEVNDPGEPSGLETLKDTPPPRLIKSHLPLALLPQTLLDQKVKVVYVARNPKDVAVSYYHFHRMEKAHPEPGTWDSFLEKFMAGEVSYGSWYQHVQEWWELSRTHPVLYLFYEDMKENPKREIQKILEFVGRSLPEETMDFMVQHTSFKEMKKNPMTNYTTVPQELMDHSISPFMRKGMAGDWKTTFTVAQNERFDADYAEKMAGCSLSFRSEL
# Sequence of SULT1A3 (P0DMM9 whole entry): as above
Compound,sulfate detection when SULT1A3 was used [1],"sulfonation rate [1, 4]","sulfonation rate [1, 5]",further results
"O=c1c(-c2ccc(O)cc2)coc2cc(O)cc(O)c12 [genistein, Genistein]",not detected,0 nmol/hr/mg protein,0 nmol/hr/mg protein,–
"O=c1c(O)c(-c2ccccc2)oc2cc(O)cc(O)c12 [3,5,7THF, 3,5,7-Trihydroxyflavone]",–,13.88 ± 1.21 nmol/hr/mg protein,24.98 ± 0.49 nmol/hr/mg protein,–
"O=C(CCc1ccc(O)cc1)c1c(O)cc(O)cc1O [phloretin, Phloretin]",–,0 nmol/hr/mg protein,0 nmol/hr/mg protein,–
"O=c1c(O)c(-c2ccccc2)oc2ccccc12 [3HF, 3-Hydroxyflavone]",not detected,0 nmol/hr/mg protein,0 nmol/hr/mg protein,–
"O=C1C[C@@H](c2ccc(O)cc2)Oc2cc(O)cc(O)c21 [naringenin, Naringenin]",–,3.21 ± 0.36 nmol/hr/mg protein,12.03 ± 0.94 nmol/hr/mg protein,–
"O=c1cc(-c2ccccc2)oc2cccc(O)c12 [5HF, 5-Hydroxyflavone]",not detected,0 nmol/hr/mg protein,–,–
"O=c1cc(-c2ccc(O)cc2)oc2ccccc12 [4’HF, 4'-Hydroxyflavone]",not detected,0 nmol/hr/mg protein,–,–
"O=c1cc(-c2ccccc2)oc2cc(O)cc(O)c12 [5,7DHF, 5,7-Dihydroxyflavone]",–,62.30 ± 2.54 nmol/hr/mg protein,85.37 ± 1.53 nmol/hr/mg protein,"Km1 [2]: 2.73 µM; Kinetic model [2]: Biphasic kinetics; Vmax-2 (biphasic) ([2]; SULT1A3, biphasic kinetics): 17.38 nmol/min/mg; Km2 ([2]; SULT1A3, biphasic kinetics, low-affinity phase): 1e-06 mM"
"O=c1cc(-c2ccccc2)oc2cc(O)ccc12 [7HF, 7-Hydroxyflavone]",–,35.66 ± 4.72 nmol/hr/mg protein,48.92 ± 5.18 nmol/hr/mg protein,microsomal CLint [3]: 30400 µL/min/mg; Km1 [2]: 2.80 µM; Kinetic model [2]: substrate inhibition kinetics; Ksi (substrate inhibition constant) [2]: 23.12
"O=c1c(O)c(-c2ccc(O)cc2)oc2ccccc12 [3,4’DHF, 3,4'-Dihydroxyflavone]",not detected,0 nmol/hr/mg protein,0 nmol/hr/mg protein,–
"O=c1cc(-c2ccc(O)cc2)oc2cc(O)ccc12 [7,4’DHF, 7,4'-Dihydroxyflavone]",–,7.54 ± 0.34 nmol/hr/mg protein,10.30 ± 1.64 nmol/hr/mg protein,Km1 [2]: 3.42 µM; Kinetic model [2]: Substrate inhibition; Ksi (substrate inhibition constant) [2]: 13.81
"O=c1c(O)c(-c2ccc(O)cc2)oc2cc(O)cc(O)c12 [kaempferol, 3,5,7,4’tetrahydroxyflavone]",–,3.78 ± 0.79 nmol/hr/mg protein,5.77 ± 0.22 nmol/hr/mg protein,–
"O=c1cc(-c2ccc(O)cc2)oc2cc(O)cc(O)c12 [apigenin, 5,7,4'-Trihydroxyflavone]",–,19.00 ± 1.58 nmol/hr/mg protein,19.36 ± 0.41 nmol/hr/mg protein,"sulfonation rate ([1]; expressed SULT1A3, substrate concentration 2.5 µM, listed as 5,7,4'THF): 19.00±1.58 nmol/hr/mg protein"
"O=c1c(O)c(-c2ccccc2)oc2cc(O)ccc12 [3,7DHF, 3,7-Dihydroxyflavone]",–,45.84 ± 1.53 nmol/hr/mg protein,74.69 ± 1.05 nmol/hr/mg protein,Vmax-1/ Km1 ([2]; SULT1A3): 43000 µL/min/mg; Km1 [2]: 1.85 µM; Kinetic model [2]: Sigmoidal kinetics of Hill equation
"O=c1c(O)c(-c2ccc(O)cc2)oc2cc(O)ccc12 [3,7,4'THF, 3,7,4'-Trihydroxyflavone]",–,6.80 ± 1.28 nmol/hr/mg protein,11.79 ± 0.33 nmol/hr/mg protein,–
